{"source": "patent US9744150B2", "about": "“Suspension containing micronized benzoyl peroxide” (Dow Pharmaceutical Sciences Inc., priority 2009, dated 2017)", "test": "surface tension by Du Noüy ring method, Krüss K20 EasyDyne tensiometer", "type": "physicochemical", "conditions": "for Surface tension: room temperature", "protocol": "As used herein, the term “surface tension” refers to the force required to increase the unit area of a surface of a liquid or of an interface between two liquids or between a liquid and a gas, generally stated in units of dynes/cm. Surface tensions described herein are measured by the Du Noüy ring method utilizing an EasyDyne tensiometer model K20 marketed by Krüss USA, Matthews, N.C.\nSurface tension of a fluid containing water was determined prior to and after mixing with various concentrations of various water soluble organic solvents in water. […] The study was performed at room temperature utilizing a Kruss Surface Tensiometer, Model K20 EasyDyne (Kruss USA, Matthews, N.C.) and the results are shown in Table 4. Values for surface tension are in dynes/cm.", "data": [{"compound": "OCCCO", "note": "[1,3-Propanediol, 1,3-propanediol]", "values": [{"measurement": "Surface tension", "setting": "1.0 % w/w solvent in water", "result": 69.8, "unit": "dynes/cm"}, {"measurement": "Surface tension", "setting": "2.5 % w/w solvent in water", "result": 68.1, "unit": "dynes/cm"}, {"measurement": "Surface tension", "setting": "5 % w/w solvent in water", "result": 64.6, "unit": "dynes/cm"}, {"measurement": "Surface tension", "setting": "7.5 % w/w solvent in water", "result": 64.4, "unit": "dynes/cm"}, {"measurement": "Surface tension", "setting": "10 % w/w solvent in water", "result": 61.2, "unit": "dynes/cm"}, {"measurement": "Surface tension", "setting": "12.5 % w/w solvent in water", "result": 61.1, "unit": "dynes/cm"}, {"measurement": "Surface tension", "setting": "15.0 % w/w solvent in water", "result": 61.0, "unit": "dynes/cm"}, {"measurement": "Surface tension", "setting": "17.5 % w/w solvent in water", "result": 58.9, "unit": "dynes/cm"}, {"measurement": "Surface tension", "setting": "20 % w/w solvent in water", "result": 60.4, "unit": "dynes/cm"}, {"measurement": "Surface tension", "setting": "22.5 % w/w solvent in water", "result": 58.2, "unit": "dynes/cm"}, {"measurement": "Surface tension", "setting": "25 % w/w solvent in water", "result": 58.3, "unit": "dynes/cm"}]}, {"compound": "CO[C@H]1CO[C@H]2[C@@H]1OC[C@H]2OC", "note": "[Dimethyl Isosorbide, dimethyl isosorbide]", "values": [{"measurement": "Surface tension", "setting": "1.0 % w/w solvent in water", "result": 66.0, "unit": "dynes/cm"}, {"measurement": "Surface tension", "setting": "2.5 % w/w solvent in water", "result": 61.7, "unit": "dynes/cm"}, {"measurement": "Surface tension", "setting": "5 % w/w solvent in water", "result": 52.8, "unit": "dynes/cm"}, {"measurement": "Surface tension", "setting": "7.5 % w/w solvent in water", "result": 52.1, "unit": "dynes/cm"}, {"measurement": "Surface tension", "setting": "10 % w/w solvent in water", "result": 47.9, "unit": "dynes/cm"}, {"measurement": "Surface tension", "setting": "12.5 % w/w solvent in water", "result": 46.4, "unit": "dynes/cm"}, {"measurement": "Surface tension", "setting": "15.0 % w/w solvent in water", "result": 43.5, "unit": "dynes/cm"}, {"measurement": "Surface tension", "setting": "17.5 % w/w solvent in water", "result": 41.9, "unit": "dynes/cm"}, {"measurement": "Surface tension", "setting": "20 % w/w solvent in water", "result": 38.6, "unit": "dynes/cm"}, {"measurement": "Surface tension", "setting": "22.5 % w/w solvent in water", "result": 40.5, "unit": "dynes/cm"}, {"measurement": "Surface tension", "setting": "25 % w/w solvent in water", "result": 41.7, "unit": "dynes/cm"}, {"measurement": "Surface tension", "setting": "100 % w/w solvent", "result": 39.3, "unit": "dynes/cm"}]}, {"compound": "CCO", "note": "[Ethanol (200 proof), ethanol]", "values": [{"measurement": "Surface tension", "setting": "1.0 % w/w solvent in water", "result": 67.4, "unit": "dynes/cm"}, {"measurement": "Surface tension", "setting": "2.5 % w/w solvent in water", "result": 62.0, "unit": "dynes/cm"}, {"measurement": "Surface tension", "setting": "5 % w/w solvent in water", "result": 55.9, "unit": "dynes/cm"}, {"measurement": "Surface tension", "setting": "7.5 % w/w solvent in water", "result": 51.4, "unit": "dynes/cm"}, {"measurement": "Surface tension", "setting": "10 % w/w solvent in water", "result": 47.8, "unit": "dynes/cm"}, {"measurement": "Surface tension", "setting": "12.5 % w/w solvent in water", "result": 44.6, "unit": "dynes/cm"}, {"measurement": "Surface tension", "setting": "15.0 % w/w solvent in water", "result": 42.2, "unit": "dynes/cm"}, {"measurement": "Surface tension", "setting": "17.5 % w/w solvent in water", "result": 40.2, "unit": "dynes/cm"}, {"measurement": "Surface tension", "setting": "20 % w/w solvent in water", "result": 38.0, "unit": "dynes/cm"}, {"measurement": "Surface tension", "setting": "22.5 % w/w solvent in water", "result": 36.6, "unit": "dynes/cm"}, {"measurement": "Surface tension", "setting": "25 % w/w solvent in water", "result": 34.9, "unit": "dynes/cm"}, {"measurement": "Surface tension", "setting": "100 % w/w solvent", "result": 22.3, "unit": "dynes/cm"}]}, {"compound": "CCOCCOCCO", "note": "[Ethoxy Diglycol NF, ethoxydiglycol]", "values": [{"measurement": "Surface tension", "setting": "1.0 % w/w solvent in water", "result": 66.2, "unit": "dynes/cm"}, {"measurement": "Surface tension", "setting": "2.5 % w/w solvent in water", "result": 62.5, "unit": "dynes/cm"}, {"measurement": "Surface tension", "setting": "5 % w/w solvent in water", "result": 56.8, "unit": "dynes/cm"}, {"measurement": "Surface tension", "setting": "7.5 % w/w solvent in water", "result": 55.3, "unit": "dynes/cm"}, {"measurement": "Surface tension", "setting": "10 % w/w solvent in water", "result": 53.1, "unit": "dynes/cm"}, {"measurement": "Surface tension", "setting": "12.5 % w/w solvent in water", "result": 50.4, "unit": "dynes/cm"}, {"measurement": "Surface tension", "setting": "15.0 % w/w solvent in water", "result": 49.7, "unit": "dynes/cm"}, {"measurement": "Surface tension", "setting": "17.5 % w/w solvent in water", "result": 47.6, "unit": "dynes/cm"}, {"measurement": "Surface tension", "setting": "20 % w/w solvent in water", "result": 43.2, "unit": "dynes/cm"}, {"measurement": "Surface tension", "setting": "22.5 % w/w solvent in water", "result": 43.1, "unit": "dynes/cm"}, {"measurement": "Surface tension", "setting": "25 % w/w solvent in water", "result": 43.8, "unit": "dynes/cm"}, {"measurement": "Surface tension", "setting": "100 % w/w solvent", "result": 32.0, "unit": "dynes/cm"}]}, {"compound": "OCC(O)CO", "note": "[Glycerin USP, glycerin]", "values": [{"measurement": "Surface tension", "setting": "25 % w/w solvent in water", "result": 69.8, "unit": "dynes/cm"}, {"measurement": "Surface tension", "setting": "50 % w/w solvent in water", "result": 68.9, "unit": "dynes/cm"}, {"measurement": "Surface tension", "setting": "75 % w/w solvent in water", "result": 66.4, "unit": "dynes/cm"}, {"measurement": "Surface tension", "setting": "100 % w/w solvent", "result": 62.0, "unit": "dynes/cm"}, {"measurement": "suitability for the present method", "setting": "by itself, at concentrations of 75% or less", "result": "not suitable"}]}, {"compound": "CC(C)O", "note": "[Isopropyl Alcohol, isopropyl alcohol]", "values": [{"measurement": "Surface tension", "setting": "1.0 % w/w solvent in water", "result": 62.1, "unit": "dynes/cm"}, {"measurement": "Surface tension", "setting": "5 % w/w solvent in water", "result": 47.3, "unit": "dynes/cm"}, {"measurement": "Surface tension", "setting": "7.5 % w/w solvent in water", "result": 42.0, "unit": "dynes/cm"}, {"measurement": "Surface tension", "setting": "10 % w/w solvent in water", "result": 38.6, "unit": "dynes/cm"}, {"measurement": "Surface tension", "setting": "12.5 % w/w solvent in water", "result": 35.7, "unit": "dynes/cm"}, {"measurement": "Surface tension", "setting": "15.0 % w/w solvent in water", "result": 33.1, "unit": "dynes/cm"}, {"measurement": "Surface tension", "setting": "17.5 % w/w solvent in water", "result": 31.1, "unit": "dynes/cm"}, {"measurement": "Surface tension", "setting": "20 % w/w solvent in water", "result": 29.5, "unit": "dynes/cm"}, {"measurement": "Surface tension", "setting": "22.5 % w/w solvent in water", "result": 28.1, "unit": "dynes/cm"}, {"measurement": "Surface tension", "setting": "25 % w/w solvent in water", "result": 27.3, "unit": "dynes/cm"}, {"measurement": "Surface tension", "setting": "100 % w/w solvent", "result": 21.1, "unit": "dynes/cm"}]}, {"compound": "CC1COC(=O)O1", "note": "(stereo not shown) [Propylene Carbonate, propylene carbonate]", "values": [{"measurement": "Surface tension", "setting": "1.0 % w/w solvent in water", "result": 68.5, "unit": "dynes/cm"}, {"measurement": "Surface tension", "setting": "2.5 % w/w solvent in water", "result": 63.8, "unit": "dynes/cm"}, {"measurement": "Surface tension", "setting": "5 % w/w solvent in water", "result": 56.8, "unit": "dynes/cm"}, {"measurement": "Surface tension", "setting": "7.5 % w/w solvent in water", "result": 49.6, "unit": "dynes/cm"}, {"measurement": "Surface tension", "setting": "10 % w/w solvent in water", "result": 45.9, "unit": "dynes/cm"}, {"measurement": "Surface tension", "setting": "12.5 % w/w solvent in water", "result": 46.5, "unit": "dynes/cm"}, {"measurement": "Surface tension", "setting": "15.0 % w/w solvent in water", "result": 44.1, "unit": "dynes/cm"}, {"measurement": "Surface tension", "setting": "17.5 % w/w solvent in water", "result": 43.5, "unit": "dynes/cm"}]}, {"compound": "CC(O)CO", "note": "(stereo not shown) [Propylene Glycol USP, propylene glycol]", "values": [{"measurement": "Surface tension", "setting": "1.0 % w/w solvent in water", "result": 70.8, "unit": "dynes/cm"}, {"measurement": "Surface tension", "setting": "2.5 % w/w solvent in water", "result": 68.7, "unit": "dynes/cm"}, {"measurement": "Surface tension", "setting": "5 % w/w solvent in water", "result": 65.9, "unit": "dynes/cm"}, {"measurement": "Surface tension", "setting": "7.5 % w/w solvent in water", "result": 63.6, "unit": "dynes/cm"}, {"measurement": "Surface tension", "setting": "10 % w/w solvent in water", "result": 61.7, "unit": "dynes/cm"}, {"measurement": "Surface tension", "setting": "12.5 % w/w solvent in water", "result": 59.7, "unit": "dynes/cm"}, {"measurement": "Surface tension", "setting": "15.0 % w/w solvent in water", "result": 58.3, "unit": "dynes/cm"}, {"measurement": "Surface tension", "setting": "17.5 % w/w solvent in water", "result": 56.5, "unit": "dynes/cm"}, {"measurement": "Surface tension", "setting": "20 % w/w solvent in water", "result": 55.2, "unit": "dynes/cm"}, {"measurement": "Surface tension", "setting": "22.5 % w/w solvent in water", "result": 54.1, "unit": "dynes/cm"}, {"measurement": "Surface tension", "setting": "25 % w/w solvent in water", "result": 52.8, "unit": "dynes/cm"}, {"measurement": "Surface tension", "setting": "30 % w/w solvent in water", "result": 50.6, "unit": "dynes/cm"}, {"measurement": "Surface tension", "setting": "100 % w/w solvent", "result": 36.1, "unit": "dynes/cm"}, {"measurement": "concentration suitable for the invention (surface tension less than 64 dynes/cm)", "setting": "solvent in water, from the data of Table 4", "result": "≥ 7.5", "unit": "%"}]}]}
